# Several values for one entry are separate records, joined by “and”; a condition that tells them apart may be missing. Identical values can stand only once. Toxic doses and inconclusive results are not listed.
# Test system: P388 leukemia ip, CD2F1 mice, survival T/C
# Assay: NCI In Vivo Anticancer Drug Screen. Data for tumor model P388 Leukemia (intraperitoneal) in CD2F1 (CDF1) mice
# Conditions: endpoint: median survival time, higher = longer survival
# How it was run: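 Mice carrying the transplanted tumor received test compound or vehicle. Survival was recorded in each group, and the value is the treated-group measurement divided by that of the vehicle-treated control group.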
# [1] = dose: 25.0 mg/kg/injection, schedule: Q01DX009 (ip), vehicle: Klucel (hydroxypropylcellulose) (HPC)
# [2] = dose: 50.0 mg/kg/injection, schedule: Q01DX009 (ip), vehicle: Klucel (hydroxypropylcellulose) (HPC)
# [3] = dose: 100.0 mg/kg/injection, schedule: Q01DX009 (ip), vehicle: Klucel (hydroxypropylcellulose) (HPC)
# [4] = dose: 50.0 mg/kg/injection, schedule: Q01DX005 (ip), vehicle: Klucel (hydroxypropylcellulose) (HPC)
# [5] = dose: 100.0 mg/kg/injection, schedule: Q01DX005 (ip), vehicle: Klucel (hydroxypropylcellulose) (HPC)
# [6] = dose: 100.0 mg/kg/injection, schedule: Q04DX002 (ip), vehicle: Klucel (hydroxypropylcellulose) (HPC)
# [7] = dose: 200.0 mg/kg/injection, schedule: Q04DX002 (ip), vehicle: Klucel (hydroxypropylcellulose) (HPC)
# [8] = dose: 400.0 mg/kg/injection, schedule: Q04DX002 (ip), vehicle: Klucel (hydroxypropylcellulose) (HPC)
# [9] = dose: 12.5 mg/kg/injection, schedule: Q01DX005 (ip), vehicle: Klucel (hydroxypropylcellulose) (HPC)
# [10] = dose: 25.0 mg/kg/injection, schedule: Q01DX005 (ip), vehicle: Klucel (hydroxypropylcellulose) (HPC)
# [11] = dose: 2.0 mg/kg/injection, schedule: Q01DX009 (ip), vehicle: saline
# [12] = dose: 100.0 mg/kg/injection, schedule: Q01DX009 (ip), vehicle: saline with Tween-80
# [13] = dose: 200.0 mg/kg/injection, schedule: Q01DX009 (ip), vehicle: saline with Tween-80
# [14] = dose: 100.0 mg/kg/injection, schedule: Q01DX001 (ip), vehicle: saline with Tween-80
# [15] = dose: 60.0 mg/kg/injection, schedule: Q01DX005 (ip), vehicle: saline with Tween-80
# [16] = dose: 120.0 mg/kg/injection, schedule: Q01DX005 (ip), vehicle: saline with Tween-80
# [17] = dose: 240.0 mg/kg/injection, schedule: Q01DX005 (ip), vehicle: saline with Tween-80
# [18] = dose: 60.0 mg/kg/injection, schedule: Q01DX005 (ip), vehicle: Klucel (hydroxypropylcellulose) (HPC)
# [19] = dose: 120.0 mg/kg/injection, schedule: Q01DX005 (ip), vehicle: Klucel (hydroxypropylcellulose) (HPC)
# [20] = dose: 240.0 mg/kg/injection, schedule: Q01DX005 (ip), vehicle: Klucel (hydroxypropylcellulose) (HPC)
smiles,measurement,setting,value
O=C(O)c1cc(Cc2ccc(O)c(C(=O)O)c2)ccc1O (tested in a mixture with another compound),T/C,[1],112 % of control
same,T/C,[2],107 % of control and 115 % of control
same,T/C,[3],121 % of control
Ic1ccc(N=Cc2ccc(C=Nc3ccc(I)cc3)cc2)cc1,T/C,"dose: 12.5 mg/kg/injection, schedule: Q01DX009 (ip), vehicle: Klucel (hydroxypropylcellulose) (HPC)",99 % of control
same,T/C,[1],95 % of control
same,T/C,[2],100 % of control
same,T/C,[3],86 % of control
same,T/C,"dose: 200.0 mg/kg/injection, schedule: Q01DX009 (ip), vehicle: Klucel (hydroxypropylcellulose) (HPC)",89 % of control
CN=C(Nc1ccccn1)c1ccc(NC(=O)c2ccc(C(=O)Nc3ccc(C(=NC)Nc4ccccn4)cc3)cc2)cc1,T/C,[4],107 % of control
same,T/C,[5],110 % of control
NC(N)=NS(=O)(=O)c1ccc(N=Cc2c3ccccc3nc3ccccc23)cc1,T/C,"dose: 12.5 mg/kg/injection, schedule: Q04DX002 (ip), vehicle: Klucel (hydroxypropylcellulose) (HPC)",99 % of control
same,T/C,"dose: 25.0 mg/kg/injection, schedule: Q04DX002 (ip), vehicle: Klucel (hydroxypropylcellulose) (HPC)",94 % of control
same,T/C,"dose: 50.0 mg/kg/injection, schedule: Q04DX002 (ip), vehicle: Klucel (hydroxypropylcellulose) (HPC)",96 % of control
same,T/C,[6],96 % of control
same,T/C,[7],92 % of control
same,T/C,[8],96 % of control
CC(C)N(C(C)C)P1(=NC(C)(C)C)N(C(C)(C)C)P(=NC(C)(C)C)(N(C(C)C)C(C)C)N1C(C)(C)C (stereo unspecified),T/C,[9],107 % of control
same,T/C,[10],104 % of control
same,T/C,[4],100 % of control and 102 % of control
same,T/C,[5],102 % of control
O=S(=O)(O)O.O=S(=O)([O-])[O-].O=[N+]([O-])O.[Co+3].[Co+3].[NH2-].[NH2-].[NH2-].[NH2-].[NH2-].[NH2-].[NH2-].[NH2-].[NH2-],T/C,"dose: 1.0 mg/kg/injection, schedule: Q01DX009 (ip), vehicle: saline",98 % of control
same,T/C,[11],93 % of control
CCOC(=O)C1=C(C)N(Cc2ccccc2)C(C)=C(C(=O)OCC)C1(C)C,T/C,[12],104 % of control
same,T/C,[13],118 % of control
same,T/C,"dose: 400.0 mg/kg/injection, schedule: Q01DX009 (ip), vehicle: saline with Tween-80",118 % of control
COc1ccc2cc3[n+](cc2c1O)CCc1cc2c(cc1-3)OCO2,T/C,"dose: 6.25 mg/kg/injection, schedule: Q01DX005 (ip), vehicle: Klucel (hydroxypropylcellulose) (HPC)",99 % of control and 106 % of control
same,T/C,[9],107 % of control and 96 % of control
same,T/C,[10],101 % of control and 117 % of control
same,T/C,[4],111 % of control
same,T/C,"dose: 200.0 mg/kg/injection, schedule: Q01DX005 (ip), vehicle: Klucel (hydroxypropylcellulose) (HPC)",179 % of control
c1ccc(C2OCCN2c2ccccc2)cc1 (stereo unspecified),T/C,"dose: 12.5 mg/kg/injection, schedule: Q01DX001 (ip), vehicle: saline with Tween-80",107 % of control
same,T/C,"dose: 25.0 mg/kg/injection, schedule: Q01DX001 (ip), vehicle: saline with Tween-80",107 % of control
same,T/C,"dose: 50.0 mg/kg/injection, schedule: Q01DX001 (ip), vehicle: saline with Tween-80",107 % of control
same,T/C,[14],101 % of control
CN(CC(=O)O)C(=S)c1ccccc1,T/C,[14],95 % of control
same,T/C,"dose: 200.0 mg/kg/injection, schedule: Q01DX001 (ip), vehicle: saline with Tween-80",95 % of control
same,T/C,"dose: 400.0 mg/kg/injection, schedule: Q01DX001 (ip), vehicle: saline with Tween-80",95 % of control
O=C(O)c1ccccc1N/N=C\c1cc(/C=N/Nc2ccccc2C(=O)O)nc2[nH]c(=O)ccc12,T/C,[6],102 % of control
same,T/C,[7],107 % of control
same,T/C,[8],105 % of control
CC1=C(C#N)C(C)(C)C(C#N)=C(C)N1,T/C,"dose: 12.5 mg/kg/injection, schedule: Q01DX009 (ip), vehicle: other",108 % of control
same,T/C,"dose: 25.0 mg/kg/injection, schedule: Q01DX009 (ip), vehicle: other",106 % of control
same,T/C,"dose: 50.0 mg/kg/injection, schedule: Q01DX009 (ip), vehicle: other",92 % of control
Cc1nc(C(Cl)(Cl)Cl)[nH]c(=O)c1SCCO,T/C,"dose: 50.0 mg/kg/injection, schedule: Q01DX005 (ip), vehicle: distilled water + alcohol",101 % of control and 108 % of control
same,T/C,"dose: 100.0 mg/kg/injection, schedule: Q01DX005 (ip), vehicle: distilled water + alcohol",105 % of control and 120 % of control
same,T/C,"dose: 200.0 mg/kg/injection, schedule: Q01DX005 (ip), vehicle: distilled water + alcohol",114 % of control
CSC1CC(C)(O)Cc2cc3c(c(O)c21)C(=O)c1c(O)cc2c(c1C3=O)OC1OC2(C)C(O)C(N(C)C)C1O (stereo unspecified),T/C,"dose: 16.0 mg/kg/injection, schedule: Q01DX009 (ip), vehicle: other",100 % of control
COC(SC)(C(=O)O)c1cc(-c2c(Cl)cccc2Cl)no1 (stereo unspecified),T/C,[15],96 % of control
same,T/C,[16],93 % of control
same,T/C,[17],112 % of control
CCOCC(=O)NC1Cc2cc(OC)c(OC)cc2C1O (stereo unspecified),T/C,[15],100 % of control
same,T/C,[16],101 % of control
same,T/C,[17],100 % of control
O=C1C2=Nc3ccccc3C(O)N2c2ccccc21 (stereo unspecified),T/C,"dose: 12.5 mg/kg/injection, schedule: Q01DX009 (ip), vehicle: saline with Tween-80",88 % of control
same,T/C,"dose: 25.0 mg/kg/injection, schedule: Q01DX009 (ip), vehicle: saline with Tween-80",89 % of control
same,T/C,"dose: 50.0 mg/kg/injection, schedule: Q01DX009 (ip), vehicle: saline with Tween-80",90 % of control and 97 % of control
same,T/C,[12],93 % of control
same,T/C,[13],94 % of control
O=C(O)/C=C/c1c2ccc(=O)cc-2oc2cc(O)ccc12,T/C,[18],103 % of control
same,T/C,[19],103 % of control
same,T/C,[20],91 % of control
CNC(=O)OCCC(OC(=O)NC)C1CCC2C3CC=C4CC(OC(=O)NC)CCC4(C)C3CCC12C (stereo unspecified),T/C,[18],99 % of control
same,T/C,[19],93 % of control
same,T/C,[20],100 % of control
C[CH2][Pb]([CH2]C)([CH2]C)[O]C(=O)CBr,T/C,[11],111 % of control
same,T/C,"dose: 3.0 mg/kg/injection, schedule: Q01DX009 (ip), vehicle: saline",117 % of control
same,T/C,"dose: 4.5 mg/kg/injection, schedule: Q01DX009 (ip), vehicle: saline",119 % of control
NOCc1cccc(C(F)(F)F)c1,T/C,"dose: 75.0 mg/kg/injection, schedule: Q01DX009 (ip), vehicle: saline with Tween-80",87 % of control
same,T/C,"dose: 150.0 mg/kg/injection, schedule: Q01DX009 (ip), vehicle: saline with Tween-80",91 % of control
same,T/C,"dose: 300.0 mg/kg/injection, schedule: Q01DX009 (ip), vehicle: saline with Tween-80",91 % of control
COc1ccc(S(=O)(=O)c2cnc(N/N=C/c3ccc([N+](=O)[O-])o3)nc2N)cc1,T/C,"dose: 100.0 mg/kg/injection, schedule: Q01DX001 (ip), vehicle: saline",93 % of control
same,T/C,"dose: 200.0 mg/kg/injection, schedule: Q01DX001 (ip), vehicle: saline",90 % of control
same,T/C,"dose: 400.0 mg/kg/injection, schedule: Q01DX001 (ip), vehicle: saline",90 % of control
Nc1nc(-c2ccc([N+](=O)[O-])cc2)c([N+](=O)[O-])c(=O)[nH]1,T/C,"dose: 3.0 mg/kg/injection, schedule: Q01DX009 (ip), vehicle: saline with Tween-80",105 % of control
same,T/C,"dose: 6.0 mg/kg/injection, schedule: Q01DX009 (ip), vehicle: saline with Tween-80",110 % of control
same,T/C,"dose: 12.0 mg/kg/injection, schedule: Q01DX009 (ip), vehicle: saline with Tween-80",110 % of control

# Reference: PubChem BioAssay AID330 (DTP/NCI, 2004)
